Assay results taken from PubChem BioAssay (NCI).
Several values for one entry are separate records, joined by “and”; a condition that tells them apart may be missing. Identical values can stand only once.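 96-well plates; 48 h exposure; 5 concentrations. Endpoints by linear interpolation between flanking doses. Not reached: highest tested concentration assigned. GI50 marks 50% less growth. Definition used: TGI = concentration required for complete inhibition of growth.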

Assays:
Test in all cases: NCI tumour cell line growth inhibition, 48 h
P388 leukemia = test system: P388 leukemia
DMS 114 small cell lung = test system: DMS 114 small cell lung
M19-MEL melanoma = test system: M19-MEL melanoma
P388/ADR leukemia = test system: P388/ADR leukemia
XF 498 CNS = test system: XF 498 CNS
SNB-78 CNS = test system: SNB-78 CNS
DLD-1 colon = test system: DLD-1 colon
MDA-N = test system: MDA-N
DMS 273 small cell lung = test system: DMS 273 small cell lung
RXF-631 renal = test system: RXF-631 renal
BT-549 breast = test system: BT-549 breast

Structure (SMILES)	TGI (P388 leukemia) [µM]	TGI (DMS 114 small cell lung) [µM]	TGI (M19-MEL melanoma)	TGI (P388/ADR leukemia) [µM]	GI50 (XF 498 CNS) [µM]	TGI (XF 498 CNS) [µM]	TGI (SNB-78 CNS)	TGI (DLD-1 colon)	TGI (MDA-N) [µM]	TGI (DMS 273 small cell lung) [µM]	TGI (RXF-631 renal)	GI50 (M19-MEL melanoma) [µM]	GI50 (SNB-78 CNS) [µM]	GI50 (RXF-631 renal) [µM]	GI50 (DLD-1 colon) [µM]	TGI (BT-549 breast) [µM]
C=CC(=O)NC(N)=NC#N	> 43.5	250	278 µM	> 58	157	313	399 µM	311 µM	–	–	–	–	–	–	–	–
Cn1c2c(c3ccccc31)CCN(CCCCN1CCN(c3ccccc3)CC1)C2=O	–	> 79.1	> 86.7 µM	–	–	> 70.1	> 100 µM	> 100 µM	89.9	> 100	> 100 µM	–	–	–	–	–
O=[N+]([O-])c1ccc(C(Cl)C(Cl)c2ccc(C(Cl)C(Cl)c3ccc([N+](=O)[O-])cc3[N+](=O)[O-])cc2)c([N+](=O)[O-])c1 (stereo unspecified)	–	3.59	3.15 µM and 0.749 µM	–	–	0.389	> 62 µM and 52.8 µM	6.02 µM and 0.748 µM	–	6.71	8.92 µM and 1.26 µM	0.256	0.762	0.336	0.251	–
Cn1c(=O)nc2n(-c3ccc(Cl)cc3)c3cc(Cl)ccc3nc-2c1=O	–	3.8	3.53 µM	–	–	2.73	> 57.4 µM	3.9 µM	3.09	12.5	4.22 µM	–	–	–	–	7.17
